US6544987B2, “Compounds, compositions, and methods for stimulating neuronal growth and elongation” (Pfizer Inc., priority 1999, dated 2003)
Several values for one entry are separate records, joined by “and”; a condition that tells them apart may be missing. Equal values may be shown once.

These compounds were tested against FKBP12 (Homo sapiens, UniProt P62942) (assay: Affinity for FKBP-12 (Ki), succinyl-Ala-Leu-Pro-Phe-pNA chymotrypsin-coupled assay). Conditions: @ 20.
Type: biochemical
Parameters: key to FKBP12 inhibition (in Kiapps column): NI: no inhibition; NSI: no significant inhibition
Procedure: In a quartz cuvette, a final 1 mL buffer concentration was reached (50 mM Hepes, 100 mM NaCl, pH 8.0). Within this final reaction volume, 3.5 μL […] FKBP-12 (in 50 mM Hepes, 100 mM NaCl, pH 8.0) and 10 μL test compound in DMSO were added. The reaction was initiated by adding 10 μL chymotrypsin (100 mg/mL in 1 mM HCl) followed by 5 μL (1-20 mM succinyl-Ala-Leu-Pro-Phe-pNA in 240 mM LiCl/TFE).
The absorbance at 390 nm versus time was monitored for up to 400 seconds. Rate constants were determined from the absorbance versus time plots generated.

FKBP12, sequence (P62942 whole entry, species assumed): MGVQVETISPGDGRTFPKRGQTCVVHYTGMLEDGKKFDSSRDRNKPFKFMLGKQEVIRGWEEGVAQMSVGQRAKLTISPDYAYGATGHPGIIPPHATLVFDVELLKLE

FKBP12 inhibition (in Kiapps column) | Compound
NSI @ 20 | O=C1[C@@H]2CCCN2S(=O)(=O)N1c1cccnc1 [Compound 117, (S)-1,1-Dioxo-2-pyridin-3-yl-hexahydro-1λ^6-thia-2,6a-diaza-pentalen-3-one]
NI @ 20 | O=C(OCCCCc1ccccc1)[C@@H]1CCCCN1S(=O)(=O)N(O)c1ccccc1 [Compound 99, (S)-1-(Hydroxy-phenyl-sulfamoyl)-piperidine-2-carboxylic acid 4-phenyl-butyl ester]
NSI @ 20 | O=C(O)[C@@H]1CCCN1S(=O)(=O)Nc1cccnc1 [Compound 116, (S)-1-(Pyridin-3-ylsulfamoyl)-pyrrolidine-2-carboxylic acid]

Same assay, conditions: Table 2; read-out: FKBP12 Kiapps

Compound | Ki
COc1cc(NS(=O)(=O)N2CCCC[C@H]2C(=O)N[C@H](COCc2cccnc2)C(C)C)cc(OC)c1OC [Compound 112, (S)-1-(3,4,5-Trimethoxy-phenylsulfamoyl)-piperidine-2-carboxylic acid [(S)-2-methyl-1-(pyridin-3-ylmethoxymethyl)-propyl]-amide] | 41 nM
NS(=O)(=O)N1CCSCC1C(=O)OCCCCc1ccccc1 (stereo not shown) [Compound 67, 4-sulfamoyl-thiomorpholine-3-carboxylic acid 4-phenyl-butyl ester] | 329000 nM and 267000 nM
COC(OC)c1ccn(S(=O)(=O)N2CCCC[C@H]2C(=O)OCCCCc2ccccc2)n1 [Compound 53, 1-(3-Dimethoxymethyl-pyrazole-1-sulfonyl)-peperidine-2-carboxyic acid 4-phenyl-butyl ester] | 2900 nM
NS(=O)(=O)N1CCCC[C@H]1C(=O)OCCCCc1ccccc1 [Compound 41, 1-Sulfamoyl-piperidine-2S-carboxylic acid 4-phenyl-butyl ester] | 38000 nM
COc1cc(NS(=O)(=O)N2CCCC[C@H]2C(=O)OC(COCc2ccccc2)COCc2ccccc2)c(OC)cc1Cl [Compound 104, (S)-1-(4-Chloro-2,5-dimethoxy-phenylsulfamoyl)-piperidine-2-carboxylic acid 2-benzyloxy-1-benzyloxymethyl-ethyl ester] | 7100 nM
C[C@@H]1CN(S(=O)(=O)N2CCCC[C@H]2C(=O)OCc2ccccc2)C[C@H](C)O1 [Compound 88, (S)-1-(cis-2,6-Dimethyl-morpholine-4-sulfonyl)-piperidine-2-carboxylic acid benzyl ester] | 837 nM
O=C(OCCCCc1ccccc1)C1CSCCN1S(=O)(=O)Nc1ccc2[nH]c(=O)[nH]c2c1 (stereo not shown) [Compound 70, 4-(2-Oxo-2,3-dihydro-1H-benzoimidazol-5-ylsulfamoyl)-thiomorpholine-3-carboxylic acid 4-phenyl-butyl ester] | 960 nM
COc1cc(N2C(=O)[C@@H]3CCCCN3S2(=O)=O)cc(OC)c1OC [Compound 40, 1,1-Dioxo-2-(3,4,5-trimethoxy-phenyl)-hexahydro-1-[1,2,5] Thiadiazolo [2,3-] pyridin-3-one] | 228000 nM
COc1cc(NS(=O)(=O)N2CCCC[C@H]2C(=O)NCCCc2cccnc2)cc(OC)c1OC [Compound 93, (S)-1-(3,4,5-Trimethoxy-phenylsulfamoyl)-piperidine-2-carboxylic acid (3-pyridin-3-yl-propyl)-amide] | 200 nM
COc1ccc2nc(NS(=O)(=O)N3CCCC[C@H]3C(=O)OCCCCc3ccccc3)sc2c1 [Compound 46, 1-(6-Methoxy-benzothiazol-2-ylsulfamoyl)-piperidine-2S-carboxylic acid 4-phenyl-butyl ester] | 37000 nM
O=C(OCCCCc1ccccc1)[C@@H]1CCCCN1S(=O)(=O)Nc1ccc(N2CCOCC2)nc1 [Compound 94, (S)-1-(6-Morpholin-4-yl-pyridin-3-ylsulfamoyl)-piperidine-2-carboxylic acid 4-phenyl-butyl ester] | 208 nM
O=C(OCCCCc1ccccc1)[C@@H]1CCCCN1S(=O)(=O)Nc1cc(F)c(F)c(F)c1 [Compound 95, (S)-1-(3,4,5-Trifluoro-phenylsulfamoyl)-piperidine-2-carboxylic acid 4-phenyl-butyl ester] | 435 nM
COC(=O)[C@@H]1CCCCN1S(=O)(=O)Nc1cc(OC)c(OC)c(OC)c1 [Compound 90, (S)-1-(3,4,5-Trimethoxy-phenylsulfamoyl)-piperidine-2-carboxylic acid Methyl ester] | 6900 nM
COc1cc(NS(=O)(=O)N2CCCC[C@H]2C(=O)CCCCCc2ccccc2)cc(OC)c1OC [Compound 119, (S)-2-(6-Phenyl-hexanoyl)-piperidine-1-sulfonic acid (3,4,5-trimethoxy-phenyl)-amide] | 1300 nM
COc1cc(NS(=O)(=O)N2CCCC[C@H]2C(=O)OCc2ccccc2)cc(OC)c1OC [Compound 36, 1-(3,4,5-Trimethoxy-phenylsulfamoyl)-piperidine-2S-carboxylic acid Benzyl ester] | 398 nM
CCC(C)(C)NS(=O)(=O)N1CCCC[C@H]1C(=O)OCc1ccccc1 [Compound 38, 1-(1,1-Dimethyl-propylsulfamoyl)-piperidine-2S-carboxylic acid Benzyl ester] | 678 nM
COc1cc(NS(=O)(=O)N2[C@H]3CC[C@H](C3)[C@H]2C(=O)OCCCCc2ccccc2)cc(OC)c1OC [Compound 85, 2-(3,4,5-Trimethoxy-phenylsulfamoyl)-2-aza-bicyclo[2.2.1]heptane-endo-3-carboxylic acid 4-phenyl-butyl ester] | 1600 nM
COc1cc(NS(=O)(=O)N2CCC[C@H]2C(=O)OCc2ccccc2)cc(OC)c1OC [Compound 29, 1-(3,4,5-Trimethoxy-phenylsulfamoyl)-pyrrolidine-2S-carboxylic acid Benzyl ester] | 34400 nM
COc1cc(NS(=O)(=O)N2CCSCC2C(=O)OCCCCc2ccccc2)cc(OC)c1OC (stereo not shown) [Compound 68, 4-(3,4,5-trimethoxy-phenylsulfamoyl)-thiomorpholine-3-carboxylic acid 4-phenyl-butyl ester] | 4410 nM and 6400 nM

Other lines, results leading:

Ki | Compound
33 nM | O=C(OC(COCc1ccccc1)COCc1ccccc1)[C@@H]1CCCCN1S(=O)(=O)Nc1cccnc1 [Compound 105, (S)-1-(Pyridin-3-ylsulfamoyl)-piperidine-2-carboxylic acid 2-benzyloxy-1-benzyloxymethyl-ethyl ester]
12000 nM | CN(c1ccccc1)S(=O)(=O)N1CCCC[C@H]1C(=O)OCCCCc1ccccc1 [Compound 44, 1-(Methyl-phenyl-sulfamoyl)-piperidine-2S-carboxylic acid 4-phenyl-butyl ester]
73 nM | O=C(OCCCCc1ccccc1)[C@@H]1CCCCN1S(=O)(=O)Nc1cccnc1 [Compound 97, (S)-1-(Pyridin-3-ylsulfamoyl)-piperidine-2-carboxylic acid 4-phenylbutyl ester]
1300 nM | O=S(=O)(Nc1ccccc1)N1CCCC[C@H]1c1nnc(Cc2ccccc2)o1 [Compound 76, 2S-(5-Benzyl-[1,3,4]oxadiazol-2-yl)-piperidine-1-sulfonic acid phenylamide]
6500 nM | O=C(OCCCCc1ccccc1)[C@@H]1CCCCN1S(=O)(=O)Oc1ccccc1 [Compound 13, 1-Phenoxy sulfonyl-piperidine-2S-carboxylic acid 4-phenyl-butyl ester]
19700 nM | O=C(OCc1ccccc1)[C@@H]1CCCN1S(=O)(=O)Nc1ccccc1 [Compound 28, 1-Phenylsulfamoyl-pyrrolidine-2S-carboxylic acid Benzyl ester]
266 nM | O=C(OCCCCc1ccccc1)[C@@H]1CCCCN1S(=O)(=O)Nc1ccc(N2CCOCC2)cc1 [Compound 42, (S)-1-(4-morpholin-4-yl-phenylsulfamoyl)-piperidine-2-carboxylic 4-phenyl-butyl ester]
5200 nM | O=C(OCCCCc1ccccc1)C1CSCCN1S(=O)(=O)Nc1ccccc1 (stereo not shown) [Compound 69, 4-Phenylsulfamoyl-thiomorpholine-3-carboxylic acid 4-phenyl-butyl ester]
115 nM | O=C(OC(COCc1ccccc1)COCc1ccccc1)[C@@H]1CCCCN1S(=O)(=O)Nc1ccc(N2CCOCC2)nc1 [Compound 106, (S)-1-(6-Morpholin-4-yl-pyridin-3-ylsulfamoyl)-piperidine-2-carboxylic acid 2-benzyloxy-1-benzyloxymethyl-ethyl ester]
152 nM | O=C(OCCCCc1ccccc1)[C@@H]1CCCCN1S(=O)(=O)Nc1ccc(Cl)nc1 [Compound 52, (S)-1-(6-Chloro-pyridin-3-ylsulfamoyl)-piperidine-2-carboxylic acid 4-phenyl-butyl ester]
5200 nM | COc1cc(NS(=O)(=O)N2CCCC[C@H]2c2nnc(Cc3ccccc3)o2)cc(OC)c1OC [Compound 78, 2-(5-Benzyl-[1,3,4]oxadiazol-2-yl)-piperidine-1-sulfonic acid (3,4,5-trimethoxy-phenyl)-amide]
84 nM | O=C(OCCCCc1ccccc1)[C@@H]1CCCCN1S(=O)(=O)Nc1ccc2[nH]c(=O)[nH]c2c1 [Compound 45, 1-(2-Oxo-2,3-dihydro-1H-benzoimidazol-5-ylsulfamoyl)-piperidine-2-carboxylic acid 4-phenyl-butyl ester]
88 nM | Cc1ccc(NS(=O)(=O)N2CCCC[C@H]2C(=O)OC(COCc2ccccc2)COCc2ccccc2)cn1 [Compound 107, (S)-1-(6-Methyl-pyridin-3-ylsulfamoyl)-piperidine-2-carboxylic acid 2-benzyloxy-1-benzyloxymethyl-ethyl ester]
440 nM | O=C(OCCCCc1ccccc1)[C@@H]1CCCCN1S(=O)(=O)Nc1ccc(C(F)(F)F)nc1 [Compound 96, (S)-1-(6-Trifluoromethyl-pyridin-3-ylsulfamoyl)-piperidine-2-carboxylic acid 4-phenyl-butyl ester]
107000 nM | CN(C)S(=O)(=O)N1CCCC[C@H]1c1nnc(Cc2ccccc2)o1 [Compound 75, 2S-(5-Benzyl-[1,3,4]oxadiazol-2-yl)-piperidine-1-sulfonic acid dimethylamide]
